Read-outs that look alike come from different tables or passages of the source.
Tests used:
[1] = MTT cell viability assay, Huh7 cells; assay type: cell-based, human; settings: human, Huh7 cells; Huh7, MTT, 10 µM, 24 hrs, without TRAIL; Supplementary Table 3; read-out: Cell viability assay Compound only
Method: (§1) Cell viability was assessed using a 3-(4,5-dimethylthiazol-2-yl)-2,5-diphenyltetrazolium bromide (MTT, Sigma-Aldrich, St. Louis, USA) assay. The cells were seeded at a density of 1 × 10^4 cells per well and treated with the lead compounds and/or TRAIL. After 24 or 48 h, MTT (2 mg/ml) was added to each well, and the absorbance was measured using a microplate reader (Bio-Rad, Hercules, USA) at 570 nm. The cell viability was calculated as the percentage of viable cells in the drug-treated group versus the untreated control using the following equation: cell viability (%) = [OD (drug)-OD (blank)]/[OD (control)-OD (blank)] × 100.

Huh7 cells = assay: MTT cell viability assay, Huh7 cells; assay type: cell-based, human; settings: for reduction of cell viability of Huh7 cells by co-treatment with TRAIL, compared to TRAIL alone: 10 μM TRT-0029 or 20 μM TRT-0173 plus TRAIL; for reduction of cell viability of Huh7 cells by co-treatment with TRAIL, compared to TRAIL alone / effective working concentration: 24 h; for viability at 10 µM: Homo sapiens, Huh-7, Huh7, MTT, 24 hrs, with TRAIL, Supplementary Table 3, read-out: Cell viability assay Compound + TRAIL; for effective working concentration: Huh7 cells, various doses with and without TRAIL (100 ng/ml)
Method: as §1

HepG2 cells = assay: MTT cell viability assay, HepG2 cells; assay type: cell-based, human; settings: 10 µM TRT-0029 or 20 µM TRT-0173 plus TRAIL 100 ng/ml, 24 h
Method: as §1

caspase-3 and PARP = assay: Western blot of cleaved caspase-3 and PARP in Huh7 cells; assay type: cell-based, human; settings: lead compounds co-treated with TRAIL 100 ng/ml, TRAIL tested alone
Method: The cells were lysed in lysis buffer (50 mM Tris-HCl, pH 7.4, 150 mM NaCl, 1% Triton™ X-100, 0.1% SDS, 1 mM EDTA, 1 mM Na3VO4, 1 mM NaF, and protease inhibitor cocktail) and clarified by centrifugation at 14,000×g for 20 min at 4°C. The protein samples were then subjected to Western blotting with the indicated antibodies.

caspase-3 = assay: Caspase 3 activity assay in Huh7 cells; assay type: cell-based, human; settings: for Caspase 3 activity Compound + TRAIL/Compound: each compound at its working concentration and time of the table
Method: The caspase 3 activity was measured using a caspase-3 luminescent assay kit (Promega, Madison, WI, USA), according to the manufacturer's instructions, and a luminescence plate reader (Molecular Devices Co., Sunnyvale, USA).

MKK7-TIPRL interaction = target: T1, MKK7-TIPRL interaction (Homo sapiens, UniProt O14733+O75663); assay: GST pull-down assay of MKK7-TIPRL in 293T cells; assay type: cell-based; settings: 10 μM TRT-0029 or 20 μM TRT-0173, 24 h
T1 sequence (O14733 1-419): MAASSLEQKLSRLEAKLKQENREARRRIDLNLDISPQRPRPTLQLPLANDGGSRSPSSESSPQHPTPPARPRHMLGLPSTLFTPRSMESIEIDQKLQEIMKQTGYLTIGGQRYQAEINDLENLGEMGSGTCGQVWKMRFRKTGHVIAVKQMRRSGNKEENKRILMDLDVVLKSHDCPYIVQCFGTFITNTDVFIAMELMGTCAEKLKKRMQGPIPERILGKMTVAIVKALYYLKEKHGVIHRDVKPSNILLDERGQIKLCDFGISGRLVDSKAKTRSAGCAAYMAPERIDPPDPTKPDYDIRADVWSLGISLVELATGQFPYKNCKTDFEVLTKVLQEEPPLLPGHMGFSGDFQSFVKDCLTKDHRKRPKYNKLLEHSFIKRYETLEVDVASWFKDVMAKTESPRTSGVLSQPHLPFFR
T1 sequence (O75663 1-272): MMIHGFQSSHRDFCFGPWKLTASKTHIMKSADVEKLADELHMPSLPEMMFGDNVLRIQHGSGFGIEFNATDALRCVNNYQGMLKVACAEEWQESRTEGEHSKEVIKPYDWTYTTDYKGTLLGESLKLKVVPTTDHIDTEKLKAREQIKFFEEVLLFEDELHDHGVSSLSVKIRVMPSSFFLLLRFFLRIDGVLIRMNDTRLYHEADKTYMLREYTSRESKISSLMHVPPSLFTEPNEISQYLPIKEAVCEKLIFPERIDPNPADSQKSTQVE
Method: The full-length cDNAs of human TIPRL and MKK7 were subcloned into the pCGN vector (W. Herr, Cold Spring Harbor Laboratory) and the pEBG vector containing a GST tag to construct the HA-tagged and the GST-tagged plasmids, respectively. 293T cells were transfected with expression vector constructs using the TurboFect Transfection Reagent (Thermo Fisher Scientific, Lafayette, USA) and then were lysed in RIPA buffer (50 mM Tris-HCl, 150 mM NaCl, 1% Triton™ X-100, 0.1% SDS, 1 mM EDTA, 1 mM Na3VO4, and 1 mM NaF) containing complete protease inhibitor cocktail (Roche Applied Science, Indianapolis, USA). Whole-cell extracts were incubated with Glutathione Sepharose 4B (GE Healthcare, Uppsala, Sweden), and the eluted GST-tagged proteins were subjected to Western blotting using the indicated antibodies.

Huh7 tumor xenografts = assay: In vivo Huh7 xenograft assay; set-up: species or system BALB/c nude mice; settings: for tumor volume / tumor growth at 11 days, compound + TRAIL compared with compound alone: compound 30 mg/kg i.v. plus TRAIL 2.5 mg/kg i.p. daily; for reduction of average tumor mass, lead compound + TRAIL: compound 30 mg/kg i.v. plus TRAIL 2.5 mg/kg i.p. daily for 11 days, versus vehicle control
Description: Five-week-old female BALB/c nude mice were purchased from SLC Japan and were maintained in accordance with the guidelines of the Institutional Review Committee for Animal Care and Use of the Korea Research Institute of Bioscience and Biotechnology. Protocol approval was obtained from the same committee.
Huh7 cells were harvested and subcutaneously injected (5 × 10^6 cells/mouse) into nude mice (N = 6/group for TRT-0173 or TRT-0029 experiments). When the tumor volume reached ~100 mm^3, the mice were divided into four groups and treated with vehicle, TRAIL (2.5 mg/kg, intraperitoneal), lead compound (TRT-0029 or TRT-0173, 30 mg/kg, intravenously), or lead compound (30 mg/kg, intravenously) combined with TRAIL (2.5 mg/kg, intraperitoneal) daily for 11 days (11 treatments in total). The tumor volumes were measured every 2 days for 11 days after treatment, and tumor volume was calculated according to the following equation: V (mm^3) = width^2 (mm^2) × length (mm)/2. Body weight and tumor mass were measured 11 days after treatment.

Pharmacokinetics in rats = assay type: in vivo, Sprague-Dawley rats; settings: rat; for AUC: male, Sprague-Dawley, plasma, after 24 h; for oral availability: 5 mg/kg i.v. and p.o.
Method: Male Sprague-Dawley rats anesthetized with ketamine were cannulated with polyethylene tubing in the femoral vein. A solution of lead compound (TRT-0029 or TRT-0173) was prepared by dissolving the compounds in a mixture of dimethyl sulfoxide (DMSO)/ polyethylene glycol 400 (PEG 400)/ distilled water (0.5: 4: 5.5), and was administered to rats by a bolus injection in the femoral vein. Blood samples were collected via the femoral vein 0, 2, 10, and 30 min, as well as 1, 2, 4, 6, 8, and 24 h after intravenous administration. For oral administration, blood was collected 0.25, 0.5, 1, 2, 4, 6, 8, and 24 h after treatment. The plasma fractions were prepared by centrifugation and were stored at −70°C before the liquid chromatography-tandem mass spectrometry (LC/MS/MS) analysis. The concentrations of target compound in the plasma were measured using LC-MS/MS (4000 QTRAP, AB SCIEX, Foster City, CA) in multiple reaction monitoring (MRM) mode. The PK parameters were determined with non-compartmental methods using Phoenix WinNolin (Pharsight, Mountain View, CA). The area under the plasma concentration-time curve (AUC) was calculated using the trapezoidal rule extrapolated to infinity. The terminal elimination half-life (t1/2), and the systemic clearance (CL) were obtained. The peak plasma concentration (Cmax) after oral administration was obtained by visual inspection of the plasma concentration-time plot of each rat.

[2] = iv, i.v. 5 mg/kg, read-out: AUC (i.v.)
[3] = po, p.o. 5 mg/kg, read-out: AUC (p.o.)

CC(=O)c1cc(-n2ncc3cc(NS(=O)(=O)c4ccccc4)ccc32)c(Cl)cc1Cl [TRT-0029]
viability at 24 h, 10 µM [1]: 69%
reduction of cell viability of Huh7 cells by co-treatment with TRAIL, compared to TRAIL alone (Huh7 cells): ~90%
viability at 10 µM (Huh7 cells): 11%
effective working concentration (Huh7 cells): 10 µM
decrease of HepG2 viability by co-treatment with TRAIL (HepG2 cells): 36%
apoptosis signals (cleaved caspase-3, PARP) by Western blotting (caspase-3 and PARP): effectively activated apoptosis signals
activity of caspase-3, co-treatment with TRAIL compared to compound alone or TRAIL alone (caspase-3; Huh7, 24 h): significantly increased
Caspase 3 activity Compound + TRAIL/Compound (caspase-3): 2.20 ratio
interaction between MKK7 and TIPRL in GST pull-down assay, compared with untreated cells (MKK7-TIPRL interaction): significantly decreased the interaction
tumor volume / tumor growth at 11 days, compound + TRAIL compared with compound alone (Huh7 tumor xenografts): significantly reduced
reduction of average tumor mass, lead compound + TRAIL (Huh7 tumor xenografts): 64.5%
AUC (Pharmacokinetics in rats; [2]): 10000 ng·h/mL
AUC (Pharmacokinetics in rats; [3]): 1220 ng·h/mL
oral availability (Pharmacokinetics in rats): 11%

COc1ccc(S(=O)(=O)Nc2ccc3c(cnn3-c3ccc(F)cc3)c2)cc1 [TRT-0173]
viability at 24 h, 10 µM [1]: 53%
reduction of cell viability of Huh7 cells by co-treatment with TRAIL, compared to TRAIL alone (Huh7 cells): ~90%
viability at 10 µM (Huh7 cells): 7%
effective working concentration (Huh7 cells): 20 µM
decrease of HepG2 viability by co-treatment with TRAIL (HepG2 cells): 53%
apoptosis signals (cleaved caspase-3, PARP) by Western blotting (caspase-3 and PARP): activated apoptosis signals
Caspase 3 activity Compound + TRAIL/Compound (caspase-3): 2.10 ratio
interaction between MKK7 and TIPRL in GST pull-down assay, compared with untreated cells (MKK7-TIPRL interaction): significantly decreased the interaction
tumor volume / tumor growth at 11 days, compound + TRAIL compared with compound alone (Huh7 tumor xenografts): moderately inhibited tumor growth
reduction of average tumor mass, lead compound + TRAIL (Huh7 tumor xenografts): 42.2%
AUC (Pharmacokinetics in rats; [2]): 4270 ng·h/mL
AUC (Pharmacokinetics in rats; [3]): 1150 ng·h/mL
oral availability (Pharmacokinetics in rats): 26.8%

Reference: paper PMC5762535, “Novel indazole-based small compounds enhance TRAIL-induced apoptosis by inhibiting the MKK7-TIPRL interaction in hepatocellular carcinoma” (Oncotarget, 2017)
